This test has as its target T1, FimH (Escherichia coli, UniProt Q1R2J4).
T1 construct: performed with UTI89 bacteria and guinea pig red blood cells; endogenous in cells; host or cells: UTI89 bacteria (whole cells, type 1 piliated)
In kind it is cell-based. The following applies: concentration reducing bacterial agglutination of guinea pig red blood cells by greater than 90%; UTI89 bacteria. As to the method: The hemagglutination inhibition (HAI) assay was performed with UTI89 bacteria and guinea pig red blood cells, as previously described (S. J. Hultgren, W. R. Schwan, A. J. Schaeffer, J. L. Duncan Infect. Immun. 1986, 54, 613-620).

As to `Cc1cc(-c2ccc3cccnc3c2)ccc1[C@@H](O)[C@H]1O[C@H](CO)[C@@H](O)[C@H](O)[C@@H]1O` [Example 15, (2R,3S,4S,5S,6R)-2-((R)-Hydroxy (2-methyl-4-(quinolin-7-yl)phenyl)methyl)-6-(hydroxymethyl)-tetrahydro-2H-pyran-3,4,5-triol], the “HAI titer EC>90” value amounted to 0.015 µM. Turning to `Cc1cc(-c2ccc3onc(C)c3c2)ccc1[C@@H](O)[C@H]1O[C@H](CO)[C@@H](O)[C@H](O)[C@@H]1O` [Example 20, (2R,3S,4S,5S,6R)-2-((R)-Hydroxy (2-methyl-4-(3-methylbenzo[d]isoxazol-5-yl)phenyl)methyl)-6-(hydroxymethyl)-tetrahydro-2H-pyran-3,4,5-triol], the “HAI titer EC>90” value was 0.068 µM. As to `CNC(=O)c1cccc(-c2ccc([C@H](O)[C@H]3OC(CO)[C@@H](O)[C@H](O)C3O)c(C(F)(F)F)c2)c1` (single isomer, unassigned) [Example 40], the “HAI titer EC>90” value was found to be 5 µM. As for `CNC(=O)c1cccc(-c2ccc([C@@H](O)[C@H]3O[C@H](CO)[C@@H](O)[C@H](O)[C@@H]3O)c(C(F)(F)F)c2)c1` [Example 39, 4′-((R)-Hydroxy ((2R,3S,4S,5S,6R)-3,4,5-trihydroxy-6-(hydroxymethyl)-tetrahydro-2H-pyran-2-yl)methyl)-N-methyl-5′-(trifluoromethyl)biphenyl-3-carboxamide], the figure is 0.015 µM; as for `Cc1cc(-c2ccc3cc[nH]c(=O)c3c2)cc(C)c1[C@H](O)[C@H]1OC(CO)[C@@H](O)[C@H](O)C1O` (single isomer, unassigned) [Example 30], 0.406 µM; as for `Cc1cc(-c2ccc3ccn(C)c(=O)c3c2)ccc1[C@@H](O)[C@H]1O[C@H](CO)[C@@H](O)[C@H](O)[C@@H]1O` [Example 11, 7-(4-((R)-Hydroxy ((2R,3S,4S,5S,6R)-3,4,5-trihydroxy-6-(hydroxymethyl)-tetrahydro-2H-pyran-2-yl)methyl)-3-methylphenyl)-2-methylisoquinolin-1 (2H)-one], 0.011 µM. As for `Cc1cc(-n2cc(-c3ccccc3)nn2)ccc1[C@@H](O)[C@H]1O[C@H](CO)[C@@H](O)[C@H](O)[C@@H]1O` [Example 48, (2R,3S,4S,5S,6R)-2-((R)-hydroxy(2-methyl-4-(4-phenyl-1H-1,2,3-triazol-1-yl)phenyl)methyl)-6-(hydroxymethyl)tetrahydro-2H-pyran-3,4,5-triol], the figure is 0.016 µM; as for `Cc1cc(-c2ccc3ccn(C(C)C)c(=O)c3c2)ccc1[C@@H](O)[C@H]1O[C@H](CO)[C@@H](O)[C@H](O)[C@@H]1O` [Example 31, 7-(4-((R)-Hydroxy ((2R,3S,4S,5S,6R)-3,4,5-trihydroxy-6-(hydroxymethyl)-tetrahydro-2H-pyran-2-yl)methyl)-3-methylphenyl)-2-isopropylisoquinolin-1 (2H)-one], 0.006 µM. With `CNC(=O)c1cccc(-c2ccc([C@@H](OC)[C@H]3O[C@H](CO)[C@@H](O)[C@H](O)[C@@H]3O)c(C)c2)c1` [Example 7, 4′-((R)-methoxy((2S,3S,4S,5S,6R)-3,4,5-trihydroxy-6-(hydroxymethyl)tetrahydro-2H-pyran-2-yl)methyl)-N,3′-dimethylbiphenyl-3-carboxamide], the “HAI titer EC>90” value worked out at 2 µM.

Take `CNC(=O)c1cc(C(=O)NC)cc(-c2ccc([C@@H](O)[C@H]3O[C@H](CO)[C@@H](O)[C@H](O)[C@@H]3O)c(C)c2)c1` [Example 38, 4′-((R)-Hydroxy ((2R,3S,4S,5S,6R)-3,4,5-trihydroxy-6-(hydroxymethyl)-tetrahydro-2H-pyran-2-yl)methyl)-N^3,N^5,3′-trimethylbiphenyl-3,5-dicarboxamide]: the “HAI titer EC>90” value is 0.007 µM. The value for `Cc1cc(-c2ccnc(N(C)C)c2)ccc1[C@@H](O)[C@H]1O[C@H](CO)[C@@H](O)[C@H](O)[C@@H]1O` [Example 27, (2R,3S,4S,5S,6R)-2-((R)-(4-(2-(Dimethylamino)pyridin-4-yl)-2-methylphenyl) (hydroxy)methyl)-6-(hydroxymethyl)-tetrahydro-2H-pyran-3,4,5-triol] was 0.016 µM.

Turning to `Cc1cc(-c2ccc3c(c2)C(=O)N(C)CC3)ccc1[C@@H](O)[C@H]1O[C@H](CO)[C@@H](O)[C@H](O)[C@@H]1O` [Example 12, 7-(4-((R)-Hydroxy ((2R,3S,4S,5S,6R)-3,4,5-trihydroxy-6-(hydroxymethyl)-tetrahydro-2H-pyran-2-yl)methyl)-3-methylphenyl)-2-methyl-3,4-dihydroisoquinolin-1 (2H)-one], the “HAI titer EC>90” value is 0.008 µM. Take `CNC(=O)c1cc(-c2ccc([C@@H](O)[C@H]3O[C@H](CO)[C@@H](O)[C@H](O)[C@@H]3O)c(C)c2)ccc1C#N` [Example 43, 4-Cyano-4′-((R)-hydroxy ((2R,3S,4S,5S,6R)-3,4,5-trihydroxy-6-(hydroxymethyl)-tetrahydro-2H-pyran-2-yl)methyl)-N,5′-dimethylbiphenyl-3-carboxamide]: the “HAI titer EC>90” value amounted to 0.006 µM. The value for `Cc1cc(-c2ccc3ccncc3c2)ccc1[C@@H](O)[C@H]1O[C@H](CO)[C@@H](O)[C@H](O)[C@@H]1O` [Example 21, (2R,3S,4S,5S,6R)-2-((R)-Hydroxy (4-(isoquinolin-7-yl)-2-methylphenyl)methyl)-6-(hydroxymethyl)-tetrahydro-2H-pyran-3,4,5-triol] was 0.016 µM. As for `Cc1cc(-c2ccc3ncccc3c2)ccc1[C@@H](O)[C@H]1O[C@H](CO)[C@@H](O)[C@H](O)[C@@H]1O` [Example 14, (2R,3S,4S,5S,6R)-2-((R)-Hydroxy (2-methyl-4-(quinolin-6-yl)phenyl)methyl)-6-(hydroxymethyl)-tetrahydro-2H-pyran-3,4,5-triol], the “HAI titer EC>90” value worked out at 0.032 µM. The value for `O=C1NCCc2ccc(-c3ccc([C@H](O)[C@H]4O[C@H](CO)[C@@H](O)[C@H](O)[C@@H]4O)c(C(F)(F)F)c3)cc21` [Example 34, 7-(4-((S)-hydroxy ((2R,3S,4S,5S,6R)-3,4,5-trihydroxy-6-(hydroxymethyl)tetrahydro-2H-pyran-2-yl)methyl)-3-(trifluoromethyl)phenyl)-3,4-dihydroisoquinolin-1 (2H)-one] was 3 µM; that for `Cc1cc(-c2ccc3c(c2)C(=O)N(C(C)C)CC3)ccc1[C@@H](O)[C@H]1O[C@H](CO)[C@@H](O)[C@H](O)[C@@H]1O` [Example 32, 7-(4-((R)-Hydroxy ((2R,3S,4S,5S,6R)-3,4,5-trihydroxy-6-(hydroxymethyl)-tetrahydro-2H-pyran-2-yl)methyl)-3-methylphenyl)-2-isopropyl-3,4-dihydroisoquinolin-1 (2H)-one] was 0.006 µM; that for `CNC(=O)c1cncc(-c2ccc([C@@H](O)[C@H]3O[C@H](CO)[C@@H](O)[C@H](O)[C@@H]3O)c(C)c2)c1` [Example 35, 5-(4-((R)-Hydroxy ((2R,3S,4S,5S,6R)-3,4,5-trihydroxy-6-(hydroxymethyl)-tetrahydro-2H-pyran-2-yl)methyl)-3-methylphenyl)-N-methylnicotinamide] was 0.01 µM. Take `Cc1cc(N=[N+]=[N-])ccc1[C@@H](O)[C@H]1O[C@H](CO)[C@@H](O)[C@H](O)[C@@H]1O` [Example 47, (2R,3S,4S,5S,6R)-2-((R)-(4-azido-2-methylphenyl)(hydroxy)methyl)-6-(hydroxymethyl)tetrahydro-2H-pyran-3,4,5-triol]: the “HAI titer EC>90” value worked out at 0.25 µM.

With `Cc1cc(-c2ccc(C#N)cc2)ccc1[C@@H](O)[C@H]1O[C@H](CO)[C@@H](O)[C@H](O)[C@@H]1O` [Example 46, 4′-((R)-hydroxy((2R,3S,4S,5S,6R)-3,4,5-trihydroxy-6-(hydroxymethyl)tetrahydro-2H-pyran-2-yl)methyl)-3′-methylbiphenyl-4-carbonitrile], the “HAI titer EC>90” value was determined as 0.053 µM. The value for `Cc1cc(-c2ccc3c(c2)C(=O)NC3)ccc1[C@@H](O)[C@H]1O[C@H](CO)[C@@H](O)[C@H](O)[C@@H]1O` [Example 19, 6-(4-((R)-Hydroxy ((2R,3S,4S,5S,6R)-3,4,5-trihydroxy-6-(hydroxymethyl)-tetrahydro-2H-pyran-2-yl)methyl)-3-methylphenyl)isoindolin-1-one] was 0.016 µM; that for `Cc1cc(-c2ccnc(N)c2)ccc1[C@@H](O)[C@H]1O[C@H](CO)[C@@H](O)[C@H](O)[C@@H]1O` [Example 26, (2R,3S,4S,5S,6R)-2-((R)-(4-(2-Aminopyridin-4-yl)-2-methylphenyl) (hydroxy)methyl)-6-(hydroxymethyl)-tetrahydro-2H-pyran-3,4,5-triol] was 0.039 µM; that for `CNC(=O)c1cccc(-c2ccc(C(OC)[C@H]3O[C@H](CO)[C@@H](O)[C@H](O)[C@@H]3O)cc2C)c1` (single isomer, unassigned) [Example 8] was 0.5 µM. On to `Cc1cc(-c2cccc3c2CNC3=O)ccc1[C@@H](O)[C@H]1O[C@H](CO)[C@@H](O)[C@H](O)[C@@H]1O` [Example 13, 4-(4-((R)-Hydroxy ((2R,3S,4S,5S,6R)-3,4,5-trihydroxy-6-(hydroxymethyl)-tetrahydro-2H-pyran-2-yl)methyl)-3-methylphenyl)isoindolin-1-one], for which the “HAI titer EC>90” value amounted to 0.083 µM. Consider `CNC(=O)c1cc(C#N)cc(-c2ccc([C@@H](O)[C@H]3O[C@H](CO)[C@@H](O)[C@H](O)[C@@H]3O)c(C)c2)c1` [Example 42, 5-Cyano-4′-((R)-hydroxy ((2R,3S,4S,5S,6R)-3,4,5-trihydroxy-6-(hydroxymethyl)-tetrahydro-2H-pyran-2-yl)methyl)-N,5′-dimethylbiphenyl-3-carboxamide], for which the “HAI titer EC>90” value stood at 0.006 µM.

These data come from US20200002303A1, “C-GLYCOSIDE COMPOUNDS USEFUL FOR TREATING DISEASE” (Fimbrion Therapeutics, Inc., priority 2016, published 2020).
